Measured values as given in patent US20260365641A1, “Aromatic Acetylene Derivative, Preparation Method Therefor, And Use Thereof” (Zhejiang Hisun Pharmaceutical Co., Ltd., priority 2022, published 2026).
Converted amounts (≈) assume the structure as drawn.

How the values were obtained:
[1] = target: T1, recombinant Pseudomonas aeruginosa LpxC (Pseudomonas aeruginosa, UniProt P47205); assay: Inhibition of enzymatic activity of recombinant Pseudomonas aeruginosa LpxC in vitro; format: biochemical; settings: 5 nM LpxC; substrate UDP-3-O—(R-3-hydroxydecanoyl)-GlcNAc; 25 °C, 120 minutes; fluorescamine readout
T1 construct: purchased Signalway Antibody AP74647-2
T1 sequence (P47205 1-303): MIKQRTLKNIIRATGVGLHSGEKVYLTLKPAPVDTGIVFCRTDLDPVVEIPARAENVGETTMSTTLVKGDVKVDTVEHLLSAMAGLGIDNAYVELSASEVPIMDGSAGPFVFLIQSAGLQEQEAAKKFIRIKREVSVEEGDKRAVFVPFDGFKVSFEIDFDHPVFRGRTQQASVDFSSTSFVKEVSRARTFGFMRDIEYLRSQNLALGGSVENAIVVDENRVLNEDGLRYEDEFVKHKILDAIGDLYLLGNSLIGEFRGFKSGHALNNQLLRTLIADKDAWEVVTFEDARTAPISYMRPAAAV
Experimental: The following method was used to determine degrees of inhibition of the compounds of the present invention on the enzymatic activity of recombinant Pseudomonas aeruginosa LpxC in vitro.
The test process was briefly described as follows: the tested compound was first dissolved in DMSO to prepare a 10 mM storage solution. The reaction was carried out in a 96-well microplate. Firstly, 20 μL of recombinant Pseudomonas aeruginosa LpxC (purchased from Signalway Antibody, article number AP74647-2) was added into the wells, and the final concentrations were 5 nM respectively. 5 μL of the compound to be tested was added, diluted in 4-fold, with 8 concentration points, and the concentration range was 0.61-10000 nM. 5 μL of LpxC substrate UDP-3-O—(R-3-hydroxydecanoyl)-GlcNAc (purchased from Biosynth Carbosynth, article number mu75071) was added, wherein a final concentration of the substrate was […], and the substrate was incubated at 25 °C for 120 minutes. Subsequently, 20 μL of 2.0 mg/mL fluorescamine (purchased from sigma aldrich, article number F9015, wherein a solvent was dimethylformamide/acetonitrile (1:1)) was added to the reaction system, mixed evenly and reacted for 10 minutes. Finally, 50 μL of 200 mM sodium phosphate buffer solution (pH 8.0) was added to stop the reaction, and a microplate reader (BMG) was used for reading. An excitation wavelength and an emission wavelength were 390 nm and 495 nm respectively. Compared with the fluorescence intensity ratio of a control group (0.1% DMSO), the percentage inhibition rates of the compounds at each concentration were calculated, and the IC50 values of the compounds were obtained by performing nonlinear regression analysis with logarithmic value of the compound concentration-inhibition rate by GraphPad Prism 5 software, which can be seen in Table 1.

E. coli ATCC 25922 = assay: Antibacterial activity, minimum inhibitory concentration (MIC) in vitro, broth dilution; format: cell-based; settings: Escherichia coli, ATCC25922, 5×10^5 cfu/mL, 35 °C, 18-24 hours
Experimental: (§1) The minimum inhibitory concentration (MIC) in vitro was determined according to CLSI's guidelines, and a minimal broth dilution method was used.
(§2) The test process was briefly described as follows: the tested compound was dissolved in DMSO to prepare a storage solution of […], and then prepared into 11 two-fold-diluted 100× high-concentration working liquids (a final concentration of the system was 64 μg/mL to 0.06 μg/mL) by DMSO. Stains (K. pneumoniae ATCC13883, K. pneumoniae ATCC51504 and E. coli ATCC 25922) frozen at −80 °C with glycerin were inoculated to a solid agar culture medium, placed into an incubator for culturing for 18-24 hours at 35 °C to finish the preparation work of the strains. A proper amount of solid plate culture was collected, re-suspended in normal saline, and uniformly mixed. The turbidity of the bacterial suspension was adjusted to a proper turbidity by a turbidity meter, containing about 1×10^8 cfu/mL of bacteria. Then, the turbidity-regulated bacterial suspension was diluted with a test culture medium (type: CAMHIIB, purchased from BD company) to a bacterial concentration of 5×10^5 cfu/mL, thus finishing the preparation of an inoculation solution. 198 μL of the inoculation solution was inoculated into a 96-well plate, and added with 2 μL 100× high concentration working liquid of the compound, then the 96-well plate was placed at 35 °C for culturing for 18-24 hours.

K. pneumoniae ATCC51504 = assay: as above; format: cell-based; settings: Klebsiella pneumoniae, 5×10^5 cfu/mL, 35 °C, 18-24 hours
Experimental: as §1, §2

SMILES | IC50 [1] | MIC (E. coli ATCC 25922) | MIC (K. pneumoniae ATCC51504)
C[C@H](O)c1nccn1Cc1cc(-c2ccc(C#CC3=CCN(C=O)CC3)cc2)on1 [Example 57, (S)-4-((4-(3-((2-(1-hydroxyethyl)-1H-imidazol-1-yl)methyl)isoxazol-5-yl)phenyl)ethynyl)-3,6-dihydropyridine-1(2H)-carbaldehyde] | 29.4 nM | 2 µg/mL (≈ 4.97 µM) | 1 µg/mL (≈ 2.48 µM)
C[C@H](O)c1nccn1Cc1cc(-c2ccc(C#CC3=CCN(CCC#N)CC3)cc2)on1 [Example 44, (S)-3-(4-((4-(3-((2-(1-hydroxyethyl)-1H-imidazol-1-yl)methyl)isoxazol-5-yl)phenyl)ethynyl)-3,6-dihydropyridin-1(2H)-yl)propanenitrile] | 24.9 nM | 1 µg/mL (≈ 2.34 µM) | 0.5 µg/mL (≈ 1.17 µM)
COCC(=O)N1CC=C(C#Cc2ccc(-c3cc(Cn4ccnc4[C@H](C)O)no3)cc2)CC1 [Example 68, (S)-1-(4-((4-(3-((2-(1-hydroxyethyl)-1H-imidazol-1-yl)methyl)isoxazol-5-yl)phenyl)ethynyl)-3,6-dihydropyridin-1(2H)-yl)-2-methoxyethan-1-one] | 21.2 nM | 1 µg/mL (≈ 2.24 µM) | 1 µg/mL (≈ 2.24 µM)
C[C@H](O)c1nccn1Cc1cc(-c2ccc(C#CC3=CCN(C(N)=O)CC3)cc2)on1 [Example 58, (S)-4-((4-(3-((2-(1-hydroxyethyl)-1H-imidazol-1-yl)methyl)isoxazol-5-yl)phenyl)ethynyl)-3,6-dihydropyridine-1(2H)-carboxamide] | 19.2 nM | 1 µg/mL (≈ 2.4 µM) | 1 µg/mL (≈ 2.4 µM)
C[C@H](O)c1nccn1Cc1cc(-c2ccc(C#CC3=CCN(C(=O)C4CCOC4)CC3)cc2)on1 (stereo partly drawn) [Example 41, (4-((4-(3-((2-((S)-1-hydroxyethyl)-1H-imidazol-1-yl)methyl)isoxazol-5-yl)phenyl)ethynyl)-3,6-dihydropyridin-1(2H)-yl)(tetrahydrofuran-3-yl)methanone] | 22.3 nM | 1 µg/mL (≈ 2.12 µM) | 0.25 µg/mL (≈ 0.529 µM)
C[C@H](O)c1nccn1Cc1cc(-c2ccc(C#CC3=CCN(C(=O)C4CC4)CC3)cc2)on1 [Example 36, (S)-cyclopropyl(4-((4-(3-((2-(1-hydroxyethyl)-1H-imidazol-1-yl)methyl)isoxazol-5-yl)phenyl)ethynyl)-3,6-dihydropyridin-1(2H)-yl)methanone] | 19 nM | 1 µg/mL (≈ 2.26 µM) | 0.25 µg/mL (≈ 0.565 µM)
C[C@H](O)c1nccn1Cc1cc(-c2ccc(C#CC3=CCN(C(=O)c4ccccn4)CC3)cc2)on1 [Example 61, (S)-(4-((4-(3-((2-(1-hydroxyethyl)-1H-imidazol-1-yl)methyl)isoxazol-5-yl)phenyl)ethynyl)-3,6-dihydropyridin-1(2H)-yl)(pyridin-2-yl)methanone] | 11.5 nM | 1 µg/mL (≈ 2.09 µM) | 0.5 µg/mL (≈ 1.04 µM)
C[C@H](O)c1nccn1Cc1cc(-c2ccc(C#CC3=CCN(C(=O)c4cccnc4)CC3)cc2)on1 [Example 45, (S)-(4-((4-(3-((2-(1-hydroxyethyl)-1H-imidazol-1-yl)methyl)isoxazol-5-yl)phenyl)ethynyl)-3,6-dihydropyridin-1(2H)-yl)(pyridin-3-yl)methanone] | 12.3 nM | 1 µg/mL (≈ 2.09 µM) | 0.5 µg/mL (≈ 1.04 µM)
C[C@H](O)c1nccn1Cc1cc(-c2ccc(C#CC3=CCN(C(=O)C4(O)CC4)CC3)cc2)on1 [Example 69, (S)-(1-hydroxycyclopropyl)(4-((4-(3-((2-(1-hydroxyethyl)-1H-imidazol-1-yl)methyl)isoxazol-5-yl)phenyl)ethynyl)-3,6-dihydropyridin-1(2H)-yl)methanone] | 20.8 nM | 2 µg/mL (≈ 4.36 µM) | 2 µg/mL (≈ 4.36 µM)
C[C@H](O)c1nccn1Cc1cc(-c2ccc(C#CC3=CCN(C(=O)C4CCOCC4)CC3)cc2)on1 [Example 66, (S)-(4-((4-(3-((2-(1-hydroxyethyl)-1H-imidazol-1-yl)methyl)isoxazol-5-yl)phenyl)ethynyl)-3,6-dihydropyridin-1(2H)-yl)(tetrahydro-2H-pyran-4-yl)methanone] | 18.5 nM | 2 µg/mL (≈ 4.11 µM) | 1 µg/mL (≈ 2.06 µM)
C[C@H](O)c1nccn1Cc1cc(-c2ccc(C#CC3=CCN(C(=O)N4CCOCC4)CC3)cc2)on1 [Example 60, (S)-(4-((4-(3-((2-(1-hydroxyethyl)-1H-imidazol-1-yl)methyl)isoxazol-5-yl)phenyl)ethynyl)-3,6-dihydropyridin-1(2H)-yl)(morpholino)methanone] | 25.3 nM | 2 µg/mL (≈ 4.1 µM) | 1 µg/mL (≈ 2.05 µM)
C[C@H](O)c1nccn1Cc1cc(-c2ccc(C#CC3=CCN(C(=O)CO)CC3)cc2)on1 [Example 63, (S)-2-hydroxy-1-(4-((4-(3-((2-(1-hydroxyethyl)-1H-imidazol-1-yl)methyl)isoxazol-5-yl)phenyl)ethynyl)-3,6-dihydropyridin-1(2H)-yl)ethan-1-one] | 23.6 nM | 0.5 µg/mL (≈ 1.16 µM) | 0.5 µg/mL (≈ 1.16 µM)
C[C@H](O)c1nccn1Cc1cc(-c2ccc(C#CC3=CCN(C(=O)c4cnccn4)CC3)cc2)on1 [Example 38, (S)-(4-((4-(3-((2-(1-hydroxyethyl)-1H-imidazol-1-yl)methyl)isoxazol-5-yl)phenyl)ethynyl)-3,6-dihydropyridin-1(2H)-yl)(pyrazin-2-yl)methanone] | 22.7 nM | 0.25 µg/mL (≈ 0.52 µM) | 0.5 µg/mL (≈ 1.04 µM)
C[C@H](O)c1nccn1Cc1cc(-c2ccc(C#CC3=CCN(CCn4cncn4)CC3)cc2)on1 [Example 43, (S)-1-(1-((5-(4-((1-(2-(1H-1,2,4-triazol-1-yl)ethyl)-1,2,3,6-tetrahydropyridin-4-yl)ethynyl)phenyl)isoxazol-3-yl)methyl)-1H-imidazol-2-yl)ethan-1-ol] | 25.8 nM | 2 µg/mL (≈ 4.26 µM) | 1 µg/mL (≈ 2.13 µM)
C[C@H](O)c1nccn1Cc1cc(-c2ccc(C#CC3CC4(C3)CN(C(=O)c3ncn[nH]3)C4)cc2)on1 [Example 55, (S)-(6-((4-(3-((2-(1-hydroxyethyl)-1H-imidazol-1-yl)methyl)isoxazol-5-yl)phenyl)ethynyl)-2-azaspiro[3.3]heptan-2-yl)(1H-1,2,4-triazol-5-yl)methanone] | 14.7 nM | 2 µg/mL (≈ 4.14 µM) | 2 µg/mL (≈ 4.14 µM)
C[C@H](O)c1nccn1Cc1cc(-c2ccc(C#CC3=CCN(C(=O)c4ccnnc4)CC3)cc2)on1 [Example 39, (S)-(4-((4-(3-((2-(1-hydroxyethyl)-1H-imidazol-1-yl)methyl)isoxazol-5-yl)phenyl)ethynyl)-3,6-dihydropyridin-1(2H)-yl)(pyridazin-4-yl)methanone] | 21.7 nM | 2 µg/mL (≈ 4.16 µM) | 1 µg/mL (≈ 2.08 µM)
C[C@H](O)c1nccn1Cc1cc(-c2ccc(C#CC3=CCN(C(=O)C4COCCO4)CC3)cc2)on1 (stereo partly drawn) [Example 64, (1,4-dioxan-2-yl)(4-((4-(3-((2-((S)-1-hydroxyethyl)-1H-imidazol-1-yl)methyl)isoxazol-5-yl)phenyl)ethynyl)-3,6-dihydropyridin-1(2H)-yl)methanone] | 19.1 nM | 1 µg/mL (≈ 2.05 µM) | 0.5 µg/mL (≈ 1.02 µM)
C[C@H](O)c1nccn1Cc1cc(-c2ccc(C#CC3=CCN(C(=O)C4COCCN4)CC3)cc2)on1 (stereo partly drawn) [Example 42, (4-((4-(3-((2-((S)-1-hydroxyethyl)-1H-imidazol-1-yl)methyl)isoxazol-5-yl)phenyl)ethynyl)-3,6-dihydropyridin-1(2H)-yl)(morpholin-3-yl)methanone] | – | 4 µg/mL (≈ 8.2 µM) | 2 µg/mL (≈ 4.1 µM)
